Laboratory results from the supplement of paper PMC10307832.

Assays:
Test in all cases: relative viability (nuclei count vs DMSO), 5 days (fraction); higher = more cells survive
[1] = system: ABC-1
Method in brief: (§1)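 Medians of duplicate plates are given as relative viability. That measure is the nuclei count in treated wells divided by the count in vehicle wells. Counts were taken on 4× images of lung cancer cell lines in 1536-well plates, 5 days after pin-tool dosing the day after seeding with one drug alone or a fixed anchor-drug dose plus five library-drug doses (not always all listed) in √10 steps.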

[2] = system: HOP-62
Method in brief: as §1

[3] = system: NCI-H1355
Method in brief: as §1

[4] = system: NCI-H1623
Method in brief: as §1

[5] = system: NCI-H2009
Method in brief: as §1

[6] = system: NCI-H23
Method in brief: as §1

[7] = system: NCI-H322M
Method in brief: as §1

[8] = system: UMC-11
Method in brief: as §1

[9] = system: IA-LM
Method in brief: as §1

[10] = system: NCI-H1648
Method in brief: as §1

[11] = system: A549
Method in brief: as §1

[12] = system: Calu-6
Method in brief: as §1

[13] = system: EBC-1
Method in brief: as §1

[14] = system: NCI-H1299
Method in brief: as §1

[15] = system: NCI-H1703
Method in brief: as §1

COCC1(CO)C(=O)C2CCN1CC2 (centres undefined) [PRIMA-1MET] + Cc1nc(Nc2ncc(C(=O)Nc3c(C)cccc3Cl)s2)cc(N2CCN(CCO)CC2)n1 [Dasatinib] (partner 0.075 µM)
relative viability ([1]; first compound 0.2 µM): 0.705 | relative viability ([1]; first compound 0.6325 µM): 0.539 | relative viability ([1]; first compound 2 µM): 0.58 | relative viability ([1]; first compound 6.325 µM): 0.451 | relative viability ([1]; first compound 20 µM): 0.279 | relative viability ([2]; first compound 0.2 µM): 0.637 | relative viability ([2]; first compound 0.6325 µM): 0.7 | relative viability ([2]; first compound 2 µM): 0.628 | relative viability ([2]; first compound 6.325 µM): 0.658 | relative viability ([2]; first compound 20 µM): 0.582 | relative viability ([3]; first compound 0.2 µM): 0.793 | relative viability ([3]; first compound 0.6325 µM): 0.571 | relative viability ([3]; first compound 2 µM): 0.785 | relative viability ([3]; first compound 6.325 µM): 0.766 | relative viability ([3]; first compound 20 µM): 0.657 | relative viability ([4]; first compound 0.2 µM): 0.517 | relative viability ([4]; first compound 0.6325 µM): 0.563 | relative viability ([4]; first compound 2 µM): 0.518 | relative viability ([4]; first compound 6.325 µM): 0.577 | relative viability ([4]; first compound 20 µM): 0.519 | relative viability ([5]; first compound 0.2 µM): 0.298 | relative viability ([5]; first compound 0.6325 µM): 0.314 | relative viability ([5]; first compound 2 µM): 0.294 | relative viability ([5]; first compound 6.325 µM): 0.142 | relative viability ([5]; first compound 20 µM): 0.0053 | relative viability ([6]; first compound 0.2 µM): 0.692 | relative viability ([6]; first compound 0.6325 µM): 0.799 | relative viability ([6]; first compound 2 µM): 0.687 | relative viability ([6]; first compound 6.325 µM): 0.721 | relative viability ([6]; first compound 20 µM): 0.221 | relative viability ([7]; first compound 0.2 µM): 0.265 | relative viability ([7]; first compound 0.6325 µM): 0.258 | relative viability ([7]; first compound 6.325 µM): 0.243 | relative viability ([7]; first compound 20 µM): 0.0311 | relative viability ([8]; first compound 0.2 µM): 0.53 | relative viability ([8]; first compound 0.6325 µM): 0.466 | relative viability ([8]; first compound 2 µM): 0.504 | relative viability ([8]; first compound 6.325 µM): 0.464 | relative viability ([8]; first compound 20 µM): 0.444

COCC1(CO)C(=O)C2CCN1CC2 (centres undefined) [PRIMA-1MET] + O=C(CCCCCCC(=O)Nc1ccccc1)NO [Vorinostat] (partner 1 µM)
relative viability ([1]; first compound 0.2 µM): 1.01 | relative viability ([1]; first compound 2 µM): 1.09 | relative viability ([1]; first compound 6.325 µM): 1.11 | relative viability ([1]; first compound 20 µM): 0.262 | relative viability ([2]; first compound 0.2 µM): 0.59 | relative viability ([2]; first compound 0.6325 µM): 0.445 | relative viability ([2]; first compound 2 µM): 0.488 | relative viability ([2]; first compound 6.325 µM): 0.623 | relative viability ([2]; first compound 20 µM): 0.245 | relative viability ([9]; first compound 0.2 µM): 0.971 | relative viability ([9]; first compound 0.6325 µM): 0.74 | relative viability ([9]; first compound 2 µM): 0.926 | relative viability ([9]; first compound 6.325 µM): 1.06 | relative viability ([9]; first compound 20 µM): 1.05 | relative viability ([3]; first compound 0.2 µM): 0.648 | relative viability ([3]; first compound 0.6325 µM): 0.632 | relative viability ([3]; first compound 2 µM): 0.556 | relative viability ([3]; first compound 6.325 µM): 0.671 | relative viability ([3]; first compound 20 µM): 0.58 | relative viability ([10]; first compound 0.2 µM): 0.668 | relative viability ([10]; first compound 2 µM): 0.445 | relative viability ([10]; first compound 20 µM): 0.621 | relative viability ([5]; first compound 0.2 µM): 0.752 | relative viability ([5]; first compound 0.6325 µM): 0.801 | relative viability ([5]; first compound 2 µM): 0.668 | relative viability ([5]; first compound 6.325 µM): 0.5 | relative viability ([5]; first compound 20 µM): 0.381 | relative viability ([6]; first compound 0.2 µM): 0.72 | relative viability ([6]; first compound 0.6325 µM): 0.48 | relative viability ([6]; first compound 2 µM): 0.482 | relative viability ([6]; first compound 6.325 µM): 0.569 | relative viability ([6]; first compound 20 µM): 0.0886 | relative viability ([7]; first compound 0.2 µM): 1.05 | relative viability ([7]; first compound 0.6325 µM): 0.806 | relative viability ([7]; first compound 6.325 µM): 0.994 | relative viability ([7]; first compound 20 µM): 0.837 | relative viability ([8]; first compound 0.2 µM): 0.422 | relative viability ([8]; first compound 0.6325 µM): 0.358 | relative viability ([8]; first compound 2 µM): 0.385 | relative viability ([8]; first compound 6.325 µM): 0.477 | relative viability ([8]; first compound 20 µM): 0.479

COCC1(CO)C(=O)C2CCN1CC2 (centres undefined) [PRIMA-1MET] + O=C(c1cc(Cc2n[nH]c(=O)c3ccccc23)ccc1F)N1CCN(C(=O)C2CC2)CC1 [Olaparib] (partner 8 µM)
relative viability ([11]; first compound 0.2 µM): 0.528 | relative viability ([11]; first compound 0.6325 µM): 0.365 | relative viability ([11]; first compound 2 µM): 0.379 | relative viability ([11]; first compound 6.325 µM): 0.371 | relative viability ([11]; first compound 20 µM): 0.266 | relative viability ([1]; first compound 0.2 µM): 0.993 | relative viability ([1]; first compound 2 µM): 0.664 | relative viability ([1]; first compound 6.325 µM): 0.662 | relative viability ([1]; first compound 20 µM): 0.616 | relative viability ([12]; first compound 0.2 µM): 0.547 | relative viability ([12]; first compound 0.6325 µM): 0.588 | relative viability ([12]; first compound 2 µM): 0.594 | relative viability ([12]; first compound 6.325 µM): 0.516 | relative viability ([12]; first compound 20 µM): 0.443 | relative viability ([13]; first compound 0.2 µM): 0.692 | relative viability ([13]; first compound 0.6325 µM): 0.712 | relative viability ([13]; first compound 2 µM): 0.701 | relative viability ([13]; first compound 6.325 µM): 0.828 | relative viability ([13]; first compound 20 µM): 0.7 | relative viability ([2]; first compound 0.2 µM): 0.489 | relative viability ([2]; first compound 0.6325 µM): 0.388 | relative viability ([2]; first compound 2 µM): 0.51 | relative viability ([2]; first compound 6.325 µM): 0.428 | relative viability ([2]; first compound 20 µM): 0.0328 | relative viability ([9]; first compound 0.2 µM): 0.867 | relative viability ([9]; first compound 0.6325 µM): 0.676 | relative viability ([9]; first compound 2 µM): 0.905 | relative viability ([9]; first compound 6.325 µM): 0.819 | relative viability ([9]; first compound 20 µM): 0.788 | relative viability ([14]; first compound 0.2 µM): 0.984 | relative viability ([14]; first compound 0.6325 µM): 0.921 | relative viability ([14]; first compound 2 µM): 0.99 | relative viability ([14]; first compound 6.325 µM): 0.959 | relative viability ([14]; first compound 20 µM): 0.984 | relative viability ([3]; first compound 0.2 µM): 0.768 | relative viability ([3]; first compound 0.6325 µM): 0.745 | relative viability ([3]; first compound 2 µM): 0.713 | relative viability ([3]; first compound 6.325 µM): 0.818 | relative viability ([3]; first compound 20 µM): 0.707 | relative viability ([10]; first compound 0.2 µM): 0.747 | relative viability ([10]; first compound 2 µM): 1.43 | relative viability ([10]; first compound 20 µM): 0.912 | relative viability ([15]; first compound 0.2 µM): 0.422 | relative viability ([15]; first compound 6.325 µM): 0.769 | relative viability ([15]; first compound 20 µM): 0.0733 | relative viability ([5]; first compound 0.2 µM): 0.657 | relative viability ([5]; first compound 0.6325 µM): 0.814 | relative viability ([5]; first compound 2 µM): 0.709 | relative viability ([5]; first compound 6.325 µM): 0.631 | relative viability ([5]; first compound 20 µM): 0.202 | relative viability ([6]; first compound 0.2 µM): 0.313 | relative viability ([6]; first compound 0.6325 µM): 0.291 | relative viability ([6]; first compound 2 µM): 0.287 | relative viability ([6]; first compound 6.325 µM): 0.27 | relative viability ([6]; first compound 20 µM): 0.082 | relative viability ([7]; first compound 0.2 µM): 0.851 | relative viability ([7]; first compound 0.6325 µM): 0.668 | relative viability ([7]; first compound 6.325 µM): 0.772 | relative viability ([7]; first compound 20 µM): 0.568 | relative viability ([8]; first compound 0.2 µM): 0.526 | relative viability ([8]; first compound 0.6325 µM): 0.312 | relative viability ([8]; first compound 2 µM): 0.376 | relative viability ([8]; first compound 6.325 µM): 0.417 | relative viability ([8]; first compound 20 µM): 0.406
